Assay [1] has as its target T1, hCB1R (Homo sapiens, UniProt P21554). The assay can be described thus: Binding to the CB1 receptor ([3H]-SR141716A displacement). Put shortly:
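[3H]-SR141716A displacement at hCB1R; test compounds at final 10 μM to 0.005 μM in assay buffer with 1% DMSO, duplicate determinations. Low control 1 μM AM 251, high control binding without compound; IC50 from curve fit, converted to Ki via Cheng-Prusoff using Kd.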

Assay [2] addresses hCB2R (Homo sapiens, UniProt P34972). Put plainly: In vitro functional assay (FLIPR, intracellular Ca2+) with recombinant HEK293 cells, CB2.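 Note: intracellular Ca2+ was tracked with the fluorescent dye Fluo-4 loaded into the cells before test substance addition.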
Protocol: Function-testing assays were performed by means of the FLIPR technique (“Fluorometric Imaging Plate Reader”, Molecular Devices Corp.).
To this end, ligand-induced changes in the intracellular concentration of Ca^2+ in recombinant HEK293 cells, which expressed both a cannabinoid receptor (CB1 or CB2) and G-protein Galpha16, were determined. For the studies, cells were sown into 96-well microtiter plates (60 000 cells/well) and left to grow overnight. The medium was removed and the cells were incubated in buffer which contained the fluorescent dye Fluo-4. After this loading with dye, the cells were washed, test substance was added dissolved in buffer, the mixture was incubated for 20 minutes, a known cannabinoid receptor agonist as a reference agonist was added in buffer and, finally, the changes in the intracellular Ca^2+ concentration were measured in the FLIPR unit.
In assay [3] the target is T1, hCB1R. Put plainly: In vitro functional assay (FLIPR, intracellular Ca2+) with recombinant HEK293 cells, CB1. On the set-up: expressed in transfected cells; host or cells: HEK293. The assay is classed as cell-based. The source says:
In Vitro Functional Assays with Recombinant Cells:

The mark [4] stands for this setting: CHO-K1/cannabinoid CB1 protein 2 μg/well, [3H]-SR141716A 0.5 nM, Ki from IC50 by Cheng-Prusoff, average of double determination, read-out: hCB1R, binding Ki.
Where [5] appears, read: read-out: hCB2R: FLIPR, IC50, recombinant HEK293 cells expressing CB2 and Galpha16, 20 min preincubation, then reference agonist, Ca2+ change.
[6] abbreviates: recombinant HEK293 cells expressing CB1 and Galpha16, 20 min preincubation, then reference agonist, Ca2+ change, read-out: hCB1R: FLIPR, IC50.

pIC50, pKi: −log10 of the molar value. Where a name gives a salt, the structure may show the parent alone. Read-outs that look alike come from different tables or passages of the source. A value given as a limit tells only on which side of the number the result lay.

Chain of hCB2R (P34972 whole entry): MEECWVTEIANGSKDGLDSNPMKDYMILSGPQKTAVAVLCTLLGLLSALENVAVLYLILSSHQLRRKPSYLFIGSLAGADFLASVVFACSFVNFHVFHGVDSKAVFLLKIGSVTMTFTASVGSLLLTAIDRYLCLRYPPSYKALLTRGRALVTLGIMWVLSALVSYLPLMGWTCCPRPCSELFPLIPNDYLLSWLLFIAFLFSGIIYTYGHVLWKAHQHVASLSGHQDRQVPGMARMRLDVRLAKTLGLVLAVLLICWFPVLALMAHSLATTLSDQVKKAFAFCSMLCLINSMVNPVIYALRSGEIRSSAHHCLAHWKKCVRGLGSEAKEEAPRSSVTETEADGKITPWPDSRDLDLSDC
T1 sequence (P21554 whole entry): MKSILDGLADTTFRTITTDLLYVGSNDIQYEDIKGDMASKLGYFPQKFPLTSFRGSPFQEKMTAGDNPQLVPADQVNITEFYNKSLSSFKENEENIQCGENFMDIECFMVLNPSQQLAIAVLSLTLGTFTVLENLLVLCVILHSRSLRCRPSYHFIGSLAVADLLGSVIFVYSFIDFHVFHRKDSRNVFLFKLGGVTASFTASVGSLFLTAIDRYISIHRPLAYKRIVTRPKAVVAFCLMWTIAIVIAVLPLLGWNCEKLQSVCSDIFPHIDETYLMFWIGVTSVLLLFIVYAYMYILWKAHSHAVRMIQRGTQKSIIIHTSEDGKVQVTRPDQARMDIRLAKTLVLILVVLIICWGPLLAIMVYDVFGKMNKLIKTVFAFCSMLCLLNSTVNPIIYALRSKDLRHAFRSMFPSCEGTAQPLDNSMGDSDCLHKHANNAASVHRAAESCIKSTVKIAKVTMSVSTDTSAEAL

With `CC1(C)C(=O)N(c2ccc(F)c(C(F)(F)F)c2)C(=O)N1Cc1ccccc1Nc1ccc(C(=N)N)cc1` [Example 144, 4-{2-[3-(4-Fluoro-3-trifluoromethylphenyl)-5,5-dimethyl-2,4-dioxoimidazolidin-1-ylmethyl]phenylamino}benzamidine hydrochloride], the pKi in assay [1] (setting [4]) was 7.72. For the same molecule, in assay [2], the pIC50 is < 5.00.

In assay [1], `CC1(C)C(=O)N(c2ccc(C#N)c(C(F)(F)F)c2)C(=O)N1Cc1ccccc1Nc1ccc(C(=O)NC(CO)CO)cc1` [Example 137, 4-{2-[3-(4-cyano-3-trifluoromethylphenyl)-5,5-dimethyl-2,4-dioxoimidazolidin-1-ylmethyl]phenylamino}-N-(2-hydroxy-1-hydroxymethylethyl)benzamide] had a pKi of 7.29. The pIC50 in assay [2] (setting [5]) is < 5.00.

In turn, `CC1(C)C(=O)N(c2ccc(C#N)c(C(F)(F)F)c2)C(=O)N1Cc1ccccc1Nc1ccc(C(F)(F)F)cc1` [Example 5, 4-{3-[2-(4-trifluoromethylphenylamino)benzyl]-4,4-dimethyl-2,5-dioxoimidazolidin-1-yl}-2-trifluoromethylbenzonitrile] gave a pKi in assay [1] of 8.15. The pIC50 was 7.36 in assay [3] and < 5.00 in assay [2] (setting [5]).

In assay [1], `COc1ccc(Nc2ccccc2CN2C(=O)N(c3ccc(C#N)c(C(F)(F)F)c3)C(=O)C2(C)C)cc1` [Example 67, 4-{3-[2-(4-methoxyphenylamino)benzyl]-4,4-dimethyl-2,5-dioxoimidazolidin-1-yl}-2-trifluoromethylbenzonitrile] showed a pKi of 9.00. Besides, the pIC50 is 9.00 in assay [3] and < 5.00 in assay [2] (setting [5]).

Take `CC1(C)C(=O)N(c2ccc(C#N)c(C(F)(F)F)c2)C(=O)N1Cc1ccc(C(F)(F)F)cc1Nc1ccc(F)cc1F` [Example 56, 4-{3-[2-(2,4-difluorophenylamino)-4-trifluoromethylbenzyl]-4,4-dimethyl-2,5-dioxoimidazolidin-1-yl}-2-trifluoromethylbenzonitrile]: the pKi in assay [1] is 8.52. The pIC50 was 8.10 in assay [3] and < 5.00 in assay [2] (setting [5]).

In assay [1], `CC1OC(=O)c2cc(Nc3ccccc3CN3C(=O)N(c4ccc(C#N)c(C(F)(F)F)c4)C(=O)C3(C)C)ccc2O1` (stereo not drawn) [Example 142, 4-{4,4-dimethyl-3-[2-(2-methyl-4-oxo-4H-1,3-benzodioxin-6-ylamino)benzyl]-2,5-dioxoimidazolidin-1-yl}-2-trifluoromethylbenzonitrile] showed a pKi of 8.52. For the same molecule, the pIC50 in assay [2] (setting [5]) was < 5.00.

In assay [1], `CC(C)(C)c1cc(N2C(=O)N(Cc3ccccc3Nc3ccc(F)cc3F)C(C)(C)C2=O)ccc1C#N` [Example 64, 2-tert-butyl-4-{3-[2-(2,4-difluorophenylamino)benzyl]-4,4-dimethyl-2,5-dioxoimidazolidin-1-yl}benzonitrile] gave a pKi of 8.30. Moreover, the results for the pIC50 in assay [3] and in assay [2] (setting [5]) were 7.80 and < 5.00, respectively.

With `COc1ccc(Nc2ccccc2CN2C(=O)N(c3ccc(C#N)c(C(F)(F)F)c3)C(=O)C2(C)C)cc1OC` [Example 75, 4-{3-[2-(3,4-dimethoxyphenylamino)benzyl]-4,4-dimethyl-2,5-dioxoimidazolidin-1-yl}-2-trifluoromethylbenzonitrile], the pIC50 in assay [3] was 7.31; in assay [2] (setting [5]), < 5.00.

In assay [1], `COC(=O)c1ccc(Nc2ccccc2CN2C(=O)N(c3ccc(C#N)c(C(F)(F)F)c3)C(=O)C2(C)C)cc1` [Example 60, methyl 4-{2-[3-(4-cyano-3-trifluoromethylphenyl)-5,5-dimethyl-2,4-dioxoimidazolidin-1-ylmethyl]phenylamino}benzoate] had a pKi of 9.00. Further, the pIC50 in assay [3] is 8.70; in assay [2] (setting [5]), < 5.00.

With `COc1ccc(Nc2ccccc2CN2C(=O)N(c3ccc(C#N)c(C(F)(F)F)c3)C(=O)C2(C)C)c(F)c1` [Example 74, 4-{3-[2-(2-fluoro-4-methoxyphenylamino)benzyl]-4,4-dimethyl-2,5-dioxoimidazolidin-1-yl}-2-trifluoromethylbenzonitrile], the values for the pIC50 in assay [3] and in assay [2] (setting [5]) were 8.40 and < 5.00, respectively.

Regarding `CC1(C)C(=O)N(c2ccc(C#N)c(C(F)(F)F)c2)C(=O)N1Cc1ccc(Nc2ccccc2)cc1` [Example 30, 4-[4,4-Dimethyl-2,5-dioxo-3-(4-phenylaminobenzyl)imidazolidin-1-yl]-2-trifluoromethylbenzonitrile], the figures for the pIC50 in assay [3] (setting [6]) and in assay [2] were 6.68 and < 5.00, respectively.

With `CCOC(=O)COc1ccc(Nc2ccccc2CN2C(=O)N(c3ccc(C#N)c(C(F)(F)F)c3)C(=O)C2(C)C)cc1` [Example 138, ethyl (4-{2-[3-(4-cyano-3-trifluoromethylphenyl)-5,5-dimethyl-2,4-dioxoimidazolidin-1-ylmethyl]phenylamino}phenoxy)acetate], the pIC50 in assay [3] was 8.40; in assay [2] (setting [5]), < 5.00.

As for `CC1(C)C(=O)N(c2ccnc(C(F)(F)F)c2)C(=O)N1Cc1ccccc1Nc1ccc(F)cc1F` [Example 66, 1-[2-(2,4-difluorophenylamino)benzyl]-5,5-dimethyl-3-(2-trifluoromethylpyridin-4-yl)imidazolidine-2,4-dione], the pKi in assay [1] (setting [4]) was 8.15. In addition, the pIC50 was 7.60 in assay [3] (setting [6]) and < 5.00 in assay [2].

In assay [1], `CC1(C)C(=O)N(c2ccc(C#N)c(C(F)(F)F)c2)C(=O)N1Cc1cccc(Cl)c1Nc1ccc(F)cc1F` [Example 42, 4-{3-[5-chloro-6-(2,4-difluorophenylamino)benzyl]-4,4-dimethyl-2,5-dioxoimidazolidin-1-yl}-2-trifluoromethylbenzonitrile] had a pKi of 9.00. Moreover, the pIC50 in assay [3] was 7.92; in assay [2] (setting [5]), < 5.00.

On to `COC(=O)c1ccc(Nc2ccccc2CN2C(=O)N(c3ccc(C#N)c(C(F)(F)F)c3)C(=O)C2(C)C)cc1OC` [Example 140, methyl 4-{2-[3-(4-cyano-3-trifluoromethylphenyl)-5,5-dimethyl-2,4-dioxoimidazolidin-1-ylmethyl]phenylamino}-2-methoxybenzoate], for which the pKi in assay [1] is 7.59. In assay [2] (setting [5]), the pIC50 was < 5.00.

`CC1(C)C(=O)N(c2ccc(C#N)c(C(F)(F)F)c2)C(=O)N1Cc1ccc(C(F)(F)F)cc1Nc1ccc(Cl)cc1` [Example 57, 4-{3-[2-(4-chlorophenylamino)-4-trifluoromethylbenzyl]-4,4-dimethyl-2,5-dioxoimidazolidin-1-yl}-2-trifluoromethylbenzonitrile]: the pIC50 in assay [3] is 7.44; in assay [2] (setting [5]), < 5.00.

In the case of `CC1(C)C(=O)N(c2ccc(C#N)c(C(F)(F)F)c2)C(=O)N1Cc1ccccc1Nc1ccccc1` [Example 1, 4-[4,4-Dimethyl-2,5-dioxo-3-(2-phenylaminobenzyl)imidazolidin-1-yl]-2-trifluoromethylbenzonitrile], the pKi in assay [1] was 7.89. The pIC50 in assay [3] was 8.00; in assay [2] (setting [5]), < 5.00.

With `CC1(C)C(=O)N(c2ccc(C#N)c(C(F)(F)F)c2)C(=O)N1Cc1ccccc1Nc1ccc(C#N)cc1F` [Example 73, 4-{3-[2-(2-fluoro-4-cyanophenylamino)benzyl]-4,4-dimethyl-2,5-dioxoimidazolidin-1-yl}-2-trifluoromethylbenzonitrile], the pIC50 was 8.15 in assay [3] and < 5.00 in assay [2] (setting [5]).

As for `CC1(C)C(=O)N(c2ccc(C#N)c(C(F)(F)F)c2)C(=O)N1Cc1ccccc1Nc1ccc(S(N)(=O)=O)cc1F` [Example 81, 4-{2-[3-(4-cyano-3-trifluoromethylphenyl)-5,5-dimethyl-2,4-dioxoimidazolidin-1-ylmethyl]phenylamino}-3-fluorobenzenesulfonamide], the results for the pIC50 in assay [3] (setting [6]) and in assay [2] were 6.84 and < 5.00, respectively.

Regarding `CC1(C)C(=O)N(c2ccc(C#N)c(C(F)(F)F)c2)C(=O)N1Cc1ccccc1Nc1ccc(F)cc1F` [Example 11, 4-{3-[2-(2,4-difluorophenylamino)benzyl]-4,4-dimethyl-2,5-dioxoimidazolidin-1-yl}-2-trifluoromethylbenzonitrile], the pKi in assay [1] was 9.00. Moreover, the pIC50 was 9.15 in assay [3] and < 5.00 in assay [2] (setting [5]).

Regarding `CC1(C)C(=O)N(c2ccc(C#N)c(C(F)(F)F)c2)C(=O)N1Cc1ccccc1Nc1ccc(C(F)(F)F)nc1` [Example 91, 4-{4,4-dimethyl-2,5-dioxo-3-[2-(6-trifluoromethylpyridin-3-ylamino)benzyl]-imidazolidin-1-yl}-2-trifluoromethylbenzonitrile], the pIC50 is 7.52 in assay [3] and < 5.00 in assay [2] (setting [5]).
